Literature values in US20120178757A1, “Method For The Prevention Of Cancer Metastasis” (NOTTINGHAM UNIVERSITY HOSPITALS NHS TRUST, priority 2010, published 2012).
“Also recorded” adds a separate entry of the source.

Experiments:
breast cancer cells = settings: in vitro breast cancer cells
prostate cancer = settings: coincidental treatment for hypertension or benign prostate hyperplasia
[1] = tested on: carcinoma cell lines of colon, prostate, ovary and breast; settings: adrenoceptor-mediated, norepinephrine-induced migration of cancer cells
[2] = tested on: human pancreatic cell lines

| SMILES | apoptosis (breast cancer cells) | proliferation (breast cancer cells) | incidence of prostate cancer (prostate cancer) | cell migration [1] | proliferation [2] |
| --- | --- | --- | --- | --- | --- |
| COc1cc2nc(N3CCN(C(=O)C4COc5ccccc5O4)CC3)nc(N)c2cc1OC (stereo not drawn) [doxazosin, Doxazosin] | induce apoptosis | inhibit proliferation | significantly lowered the incidence of prostate cancer | – | – |
| CC(C)NCC(O)COc1cccc2ccccc12 (stereo not drawn) [propranolol, Propranolol] | – | – | – | can be inhibited; also recorded: is inhibited | can reduce proliferation |
| COc1cc2nc(N3CCN(C(=O)C4CCCO4)CC3)nc(N)c2cc1OC (stereo not drawn) [terazosin, Terazosin] | – | – | significantly lowered the incidence of prostate cancer | – | – |
